Values quoted from earlier work in US20250303004A1, “RADIOPHARMACEUTICAL COMPOSITIONS FOR LOW TOXICITY ACTINIUM IN TARGETED RADIONUCLIDE THERAPY” (Curium US LLC, priority 2021, published 2025).

Tests used:
mCRPC patients = details: cited from earlier work
[1] = test system: chemotherapy naive patients; details: cited from earlier work
kidneys = details: in vivo; cited from earlier work
[2] = Kratochwil 2017, 14 patients, 50-200 kBq/kg per cycle
[3] = Sathekge 2019b, 17 patients, 4-8 MBq per cycle

Structure (SMILES): O=C(O)CC[C@H](NC(=O)N[C@@H](CCCCNC(=O)[C@H](Cc1ccc2ccccc2c1)NC(=O)[C@H]1CC[C@H](CNC(=O)CN2CCN(CC(=O)O)CCN(CC(=O)O)CCN(CC(=O)O)CC2)CC1)C(=O)O)C(=O)O [^225Ac-PSMA-617, metal not drawn]
- Biochemical response PSA50 (mCRPC patients; [2]): 44%
- Major toxicity (mCRPC patients; [2]): xerostomia
- OS (mCRPC patients; [2]): na/8.5 mo
- duration of prostate-specific antigen decline (mCRPC patients; at 100 kBq/kg): less than 4 months
- dose-limiting toxicity (mCRPC patients; if treatment activity exceeded 100 kBq/kg per cycle): severe xerostomia
- patients with remarkable antitumor activity (objective radiologic response or tumor marker decline) (mCRPC patients; of 11 evaluable patients): 9 patients
- toxicity (mCRPC patients; treatment activities of 50 kBq/kg): without toxicity
- antitumor response (mCRPC patients; treatment activities of 50 kBq/kg, high-tumor-burden patients): insufficient antitumor response
- most frequently noted side-effect ([1]; 17 patients, no discontinuation due to severe symptoms): Grade 1-2 xerostomia
- Biochemical response PSA50 [1, 3]: 88%
- Major toxicity [1, 3]: xerostomia
- nephrotoxicity ([1]; a patient with only a single functional kidney, poor renal functioning from baseline): Grade 4 nephrotoxicity
- patients with PSA decline >90% ([1]; at end of therapy, 17 patients): 82%
- patients still alive ([1]; median follow up of 13 months post initiation of treatment): 82%
- surviving patients in remission with undetectable serum PSA levels ([1]; median follow up of 13 months): 50%
- surviving patients with stable disease ([1]; median follow up of 13 months): 50%
- kidney function (kidneys): deteriorated
- route of excretion (kidneys): predominantly renal excretion
